Measured values: ChEMBL document CHEMBL1201862, “PubChem BioAssay data set” (2004)
Several values for one entry are separate records, joined by “and”; a condition that tells them apart may be missing. Identical values can stand only once.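 Compound exposure: 48 hours, 5 concentrations, 96-well plates. At the GI50, growth is halved.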 Activity calls are given as the source filed them. Rule as the data show it: active = GI50 up to about 1.1 µM and inactive = higher.

What was measured:
Assay in all cases: NCI anticancer screen, dose series, 48 h
786-0 = tested on: 786-0
NCI-H226 = tested on: NCI-H226
CAKI-1 = tested on: CAKI-1
PC-3 = tested on: PC-3
Malme-3M = tested on: Malme-3M
MDA-MB-435 = tested on: MDA-MB-435
HCC 2998 = tested on: HCC 2998
UACC-62 = tested on: UACC-62
HT-29 = tested on: HT-29
SK-MEL-2 = tested on: SK-MEL-2
UACC-257 = tested on: UACC-257
LOX IMVI = tested on: LOX IMVI
RXF 393 = tested on: RXF 393
DU-145 = tested on: DU-145
M14 = tested on: M14
HL-60 = tested on: HL-60
EKVX = tested on: EKVX
Hs-578T = tested on: Hs-578T
BT-549 = tested on: BT-549
OVCAR-8 = tested on: OVCAR-8

COC(=O)C1=COC(C)C2CN3CCc4c([nH]c5cc(OC)c(OC)cc45)C3CC12 (stereo unspecified)
GI50 (786-0): > 100 µM (inactive) and 73.8 µM (inactive) | GI50 (NCI-H226): > 100 µM (inactive) and 61.5 µM (inactive) | GI50 (CAKI-1): > 100 µM (inactive) | GI50 (PC-3): 64.9 µM (inactive) and 37 µM (inactive) | GI50 (Malme-3M): > 100 µM (inactive) | GI50 (MDA-MB-435): > 100 µM (inactive) and 72.6 µM (inactive) | GI50 (HCC 2998): 58.2 µM (inactive) and 36.1 µM (inactive) | GI50 (UACC-62): 99.8 µM (inactive) and 88.7 µM (inactive) | GI50 (HT-29): 34.2 µM (inactive) and 34.7 µM (inactive) | GI50 (SK-MEL-2): > 100 µM (inactive) | GI50 (UACC-257): > 100 µM (inactive) | GI50 (LOX IMVI): > 100 µM (inactive) and 55.5 µM (inactive) | GI50 (RXF 393): 15.3 µM (inactive) | GI50 (DU-145): > 100 µM (inactive) and 98.9 µM (inactive) | GI50 (M14): > 100 µM (inactive) and 65.9 µM (inactive) | GI50 (HL-60): 26.6 µM (inactive) and 29.9 µM (inactive) | GI50 (EKVX): 54.6 µM (inactive) and 72.8 µM (inactive) | GI50 (Hs-578T): > 100 µM (inactive) and 54 µM (inactive)

C[C@]12CC[C@@H]3c4ccc(O)cc4CC[C@H]3[C@@H]1C/C(=C\c1ccc(C#N)cc1)C2=O
GI50 (786-0): 35.7 µM (inactive) | GI50 (NCI-H226): 37.9 µM (inactive) | GI50 (CAKI-1): 82.8 µM (inactive) | GI50 (PC-3): 18.6 µM (inactive) | GI50 (Malme-3M): 28.3 µM (inactive) | GI50 (MDA-MB-435): 19.4 µM (inactive) | GI50 (HCC 2998): 37.3 µM (inactive) | GI50 (BT-549): 48.2 µM (inactive) | GI50 (UACC-62): 61.1 µM (inactive) | GI50 (HT-29): 24.9 µM (inactive) | GI50 (SK-MEL-2): 28.8 µM (inactive) | GI50 (UACC-257): 30.8 µM (inactive) | GI50 (LOX IMVI): 40.8 µM (inactive) | GI50 (OVCAR-8): 55.5 µM (inactive) | GI50 (RXF 393): 14.6 µM (inactive) | GI50 (DU-145): 57.4 µM (inactive) | GI50 (M14): 41.8 µM (inactive) | GI50 (EKVX): 34.8 µM (inactive)

O=C(CCc1cc(O)cc(O)c1)NCCCNC(=O)CCc1cc(O)cc(O)c1
GI50 (786-0): > 100 µM (inactive) | GI50 (NCI-H226): > 100 µM (inactive) | GI50 (CAKI-1): > 100 µM (inactive) | GI50 (PC-3): > 100 µM (inactive) | GI50 (Malme-3M): > 100 µM (inactive) | GI50 (MDA-MB-435): > 100 µM (inactive) | GI50 (HCC 2998): > 100 µM (inactive) | GI50 (BT-549): > 100 µM (inactive) | GI50 (UACC-62): > 100 µM (inactive) | GI50 (HT-29): > 100 µM (inactive) | GI50 (SK-MEL-2): > 100 µM (inactive) | GI50 (UACC-257): > 100 µM (inactive) | GI50 (LOX IMVI): > 100 µM (inactive) | GI50 (OVCAR-8): > 100 µM (inactive) | GI50 (RXF 393): > 100 µM (inactive) | GI50 (DU-145): > 100 µM (inactive) | GI50 (M14): > 100 µM (inactive) | GI50 (EKVX): > 100 µM (inactive)

O=C1C(=O)N(c2cccc(C(F)(F)F)c2)C(=S)N1c1ccccc1
GI50 (786-0): 33.3 µM (inactive) | GI50 (NCI-H226): 24.5 µM (inactive) | GI50 (CAKI-1): 29.2 µM (inactive) | GI50 (PC-3): 30.8 µM (inactive) | GI50 (Malme-3M): 31.8 µM (inactive) | GI50 (MDA-MB-435): 27.4 µM (inactive) | GI50 (HCC 2998): 42 µM (inactive) | GI50 (UACC-62): 14.9 µM (inactive) | GI50 (HT-29): 36.5 µM (inactive) | GI50 (SK-MEL-2): 19.1 µM (inactive) | GI50 (UACC-257): 25.8 µM (inactive) | GI50 (LOX IMVI): 1.91 µM (inactive) | GI50 (OVCAR-8): 33.7 µM (inactive) | GI50 (RXF 393): 27.7 µM (inactive) | GI50 (DU-145): 22.2 µM (inactive) | GI50 (HL-60): 32.7 µM (inactive) | GI50 (EKVX): 30.9 µM (inactive) | GI50 (Hs-578T): 27.9 µM (inactive)

O=C(c1ccccc1)N1CCC(CC2(c3cc4ccccc4[nH]3)OCCO2)CC1
GI50 (786-0): 17.8 µM (inactive) | GI50 (NCI-H226): 32.7 µM (inactive) | GI50 (CAKI-1): > 100 µM (inactive) | GI50 (PC-3): 40.5 µM (inactive) | GI50 (MDA-MB-435): 20.6 µM (inactive) | GI50 (BT-549): 52.5 µM (inactive) | GI50 (UACC-62): 19 µM (inactive) | GI50 (HT-29): 26.5 µM (inactive) | GI50 (SK-MEL-2): 30.7 µM (inactive) | GI50 (UACC-257): 27.5 µM (inactive) | GI50 (LOX IMVI): 17.2 µM (inactive) | GI50 (OVCAR-8): 58.6 µM (inactive) | GI50 (RXF 393): 76 µM (inactive) | GI50 (DU-145): > 100 µM (inactive) | GI50 (M14): 18.5 µM (inactive) | GI50 (EKVX): 66.2 µM (inactive)

OC[C@@H](O)[C@H](O)[C@H](O)[C@@H](O)C1SCCCS1
GI50 (786-0): > 100 µM (inactive) | GI50 (NCI-H226): > 100 µM (inactive) | GI50 (CAKI-1): > 100 µM (inactive) | GI50 (PC-3): > 100 µM (inactive) | GI50 (MDA-MB-435): > 100 µM (inactive) | GI50 (HCC 2998): > 100 µM (inactive) | GI50 (BT-549): > 100 µM (inactive) | GI50 (UACC-62): > 100 µM (inactive) | GI50 (HT-29): > 100 µM (inactive) | GI50 (SK-MEL-2): > 100 µM (inactive) | GI50 (UACC-257): > 100 µM (inactive) | GI50 (OVCAR-8): > 100 µM (inactive) | GI50 (RXF 393): > 100 µM (inactive) | GI50 (DU-145): > 100 µM (inactive) | GI50 (M14): > 100 µM (inactive) | GI50 (EKVX): > 100 µM (inactive)

COC(=O)/C(C)=N/N=C(\S)SC
GI50 (786-0): 35.9 µM (inactive) | GI50 (NCI-H226): > 100 µM (inactive) | GI50 (CAKI-1): 35.2 µM (inactive) | GI50 (PC-3): 36.5 µM (inactive) | GI50 (MDA-MB-435): 60.5 µM (inactive) | GI50 (HCC 2998): 40.6 µM (inactive) | GI50 (HT-29): 17.3 µM (inactive) | GI50 (SK-MEL-2): 31 µM (inactive) | GI50 (UACC-257): 50.9 µM (inactive) | GI50 (LOX IMVI): 37.2 µM (inactive) | GI50 (OVCAR-8): 36.4 µM (inactive) | GI50 (RXF 393): 16.7 µM (inactive) | GI50 (DU-145): 24.3 µM (inactive) | GI50 (M14): 23.2 µM (inactive) | GI50 (HL-60): 0.105 µM (active) | GI50 (EKVX): > 100 µM (inactive) | GI50 (Hs-578T): 28.8 µM (inactive)
